Assay [1] addresses Cytochrome P450 2C9 (Homo sapiens, UniProt P11712). The settings on record: Potency.
In assay [2] the target is T1, Neuropeptides B/W receptor type 1 (Homo sapiens, UniProt P48145).
T1 sequence (P48145 whole entry): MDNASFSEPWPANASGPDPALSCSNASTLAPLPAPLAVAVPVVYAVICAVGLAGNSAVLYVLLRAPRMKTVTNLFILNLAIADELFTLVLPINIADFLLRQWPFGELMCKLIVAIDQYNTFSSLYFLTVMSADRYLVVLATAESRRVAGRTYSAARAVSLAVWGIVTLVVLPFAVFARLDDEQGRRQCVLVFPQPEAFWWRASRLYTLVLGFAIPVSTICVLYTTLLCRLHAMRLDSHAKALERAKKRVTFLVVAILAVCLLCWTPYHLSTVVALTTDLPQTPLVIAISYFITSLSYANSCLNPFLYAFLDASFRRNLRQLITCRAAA
As to the kind of experiment: Fluorescence-based dose response cell-based high throughput screening assay to identify antagonists of the G-protein coupled receptor 7 (GPR7). [Related pubchem assays: 1952 (Screening assay (GPR7 antagonists).), 1880 (Summary AID.)]. The class given is functional.

For assay [3], the target named is Melanin-concentrating hormone receptor 1 (Homo sapiens, UniProt Q99705). Put plainly: Fluorescence-based counterscreen for antagonists of the G-protein coupled receptor 7 (GPR7): cell-based high throughput dose response assay to identify antagonists of the melanin-concentrating hormone receptor 1 (MCHR1). The class given is functional.
Assay [4] deals with T2, G-protein coupled receptor 35 (Homo sapiens, UniProt Q9HC97). Put plainly: SAR Analysis for the identification of Selective Antagonists of ERK1/2 Activity in GPR35-Overexpressing U2OS Cells - Set 2. [Related pubchem assays (depositor defined):AID2058, AID2079]. The class given is functional, cell-based.
The target of assay [5] is G-protein coupled receptor 55 (Homo sapiens, UniProt Q9Y2T6). As to the kind of experiment: SAR Analysis of Selective Antagonists of GPR55 using an Image-Based Assay - Set 3. [Related pubchem assays (depositor defined):AID2058, AID2079]. The class given is functional.
For assay [6], the target named is T2, G-protein coupled receptor 35. As to the kind of experiment: SAR analysis of Antagonists of the GPR35 Receptor using an Image-Based Assay - Set 5. [Related pubchem assays (depositor defined):AID2058, AID2079]. The class given is functional.
Assay [7] concerns the target Protein Rev (Human immunodeficiency virus type 1 group M subtype B (isolate WMJ22)(HIV-1), UniProt P05866). Put plainly: inhibitors of Rev protein–RRE RNA complex – biochemical, protein-RNA interaction, dose response (AID 842). The arrangement: species or system Human immunodeficiency virus 1.
In assay [8] the target is Lysosomal acid glucosylceramidase (Homo sapiens, UniProt P04062). As to the kind of experiment: Dose response cell-based high throughput screening assay to identify enhancers of beta-glucosidase activity. [Related pubchem assays: 784 ]. The class given is functional.
Assay [9] relates to Streptococcus sp. 'group A'. As to the kind of experiment: Streptococcus pyogenes SK(-)GAS viability under kanamycin – luminescence, BacTiterGlo, confirmation, counter-screen for streptokinase expression inhibitor project, dose response (AID 1900). It counts as functional, organism-based.
In assay [10] the target is T3, Streptokinase A (Streptococcus pyogenes serotype M1, UniProt P10520).
T3 sequence (P10520 whole entry): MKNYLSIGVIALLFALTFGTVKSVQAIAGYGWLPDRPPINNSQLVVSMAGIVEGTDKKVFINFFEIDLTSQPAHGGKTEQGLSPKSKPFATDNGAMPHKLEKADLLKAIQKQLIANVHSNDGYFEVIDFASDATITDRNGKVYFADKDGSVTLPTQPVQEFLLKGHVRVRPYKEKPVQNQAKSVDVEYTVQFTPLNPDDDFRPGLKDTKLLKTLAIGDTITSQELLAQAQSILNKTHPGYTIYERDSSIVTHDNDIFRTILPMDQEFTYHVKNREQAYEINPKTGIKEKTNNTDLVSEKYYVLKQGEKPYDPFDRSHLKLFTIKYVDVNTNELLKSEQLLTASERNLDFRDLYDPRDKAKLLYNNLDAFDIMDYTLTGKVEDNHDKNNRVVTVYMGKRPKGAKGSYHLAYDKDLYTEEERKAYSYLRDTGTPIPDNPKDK
Put plainly: viability-normalized secreted streptokinase activity reduction – plasminogen activation absorbance, OD405, dose response (AID 1914).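 Further: secreted streptokinase activity via plasminogen activation per viability signal from cell pellet.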 The class given is functional, Streptococcus pyogenes M1 GAS.

Assay [11] deals with Streptococcus. Put plainly: Luminescence Microorganism-Based Dose Response Follow up to Identify Compounds Cytotoxic to Streptococcus. [Related pubchem assays: 1677 (Project Summary), 1915, 1914, 1902 (Retest at Dose), 1900 (Counter Screen), 1662 (Primary HTS)]. The class given is functional, organism-based.
Assay [12] has as its system Streptococcus. As to the kind of experiment: GAS UMAA2166 growth inhibition – luminescence, BacTiterGlo, counter-screen for streptokinase expression inhibitor project, dose response (AID 1915).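 Further: potency for reduction of bacterial viability or growth.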 It counts as functional, organism-based.
Assay [13] has as its target Photoreceptor-specific nuclear receptor (Homo sapiens, UniProt Q9Y5X4). It counts as functional.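 Further: potency for compounds that break the NR2E3 corepressor complex and count as activators.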
For assay [14], the target named is Peroxisome proliferator-activated receptor gamma/Nuclear receptor corepressor 2 (Homo sapiens, UniProt P37231+Q9Y618). The class given is functional.
Assay [15] deals with T4, Replicative DNA helicase DnaB (Mycobacterium tuberculosis, UniProt P9WMR3).
T4 sequence (P9WMR3 whole entry): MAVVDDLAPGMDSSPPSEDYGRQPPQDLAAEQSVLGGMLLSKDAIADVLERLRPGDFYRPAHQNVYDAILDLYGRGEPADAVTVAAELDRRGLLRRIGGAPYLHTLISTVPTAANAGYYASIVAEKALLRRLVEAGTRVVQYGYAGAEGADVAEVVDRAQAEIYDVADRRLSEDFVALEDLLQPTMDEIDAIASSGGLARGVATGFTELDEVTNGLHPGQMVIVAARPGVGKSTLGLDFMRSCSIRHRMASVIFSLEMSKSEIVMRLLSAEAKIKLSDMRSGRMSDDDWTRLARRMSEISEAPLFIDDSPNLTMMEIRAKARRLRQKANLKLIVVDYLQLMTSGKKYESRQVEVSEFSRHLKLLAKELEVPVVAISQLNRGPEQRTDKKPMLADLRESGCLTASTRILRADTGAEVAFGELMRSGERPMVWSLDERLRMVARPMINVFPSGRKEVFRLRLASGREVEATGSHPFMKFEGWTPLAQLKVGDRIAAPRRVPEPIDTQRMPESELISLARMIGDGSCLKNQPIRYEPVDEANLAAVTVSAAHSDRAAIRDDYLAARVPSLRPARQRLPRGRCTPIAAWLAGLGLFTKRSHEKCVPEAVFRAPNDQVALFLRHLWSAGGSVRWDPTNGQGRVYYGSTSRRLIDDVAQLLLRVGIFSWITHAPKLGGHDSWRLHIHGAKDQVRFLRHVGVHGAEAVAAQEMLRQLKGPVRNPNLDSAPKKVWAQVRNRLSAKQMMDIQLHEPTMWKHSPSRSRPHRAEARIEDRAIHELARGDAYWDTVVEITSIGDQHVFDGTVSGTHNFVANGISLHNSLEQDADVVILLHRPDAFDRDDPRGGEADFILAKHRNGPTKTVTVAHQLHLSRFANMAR
Put plainly: DnaB intein splicing inhibitors, dose response, biochemical, cell-free fluorescence (AID 449749). The class given is functional.

Assay [16] concerns BJ. Put plainly: cells. The class given is functional, cell-based. Conditions: Homo sapiens.
Assay [17] is described as follows: DRD fibroblast viability loss – cell-based, non-viral oncogenic, luminescence, dose response (AID 1934). It counts as functional. The settings on record: Homo sapiens.
Assay [18] in a line: NIH3T3 cell viability loss – ATP luminescence, mouse fibroblasts, counter-screen, dose response (AID 2010).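 Further: cells exposed to compound for about 90 hours before reading.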 It counts as functional, cell-based.
Assay [19] has as its target G2/mitotic-specific cyclin-B1 (Homo sapiens, UniProt P14635). As to the kind of experiment: Counterscreen assay for inhibitors of Wee1 degradation: dose response cell-based assay to identify inhibitors of cyclin B degradation. [Related pubchem assays: 1410, 1321 ]. The class given is functional.
The target of assay [20] is T5, Protein RecA (Mycobacterium tuberculosis, UniProt P9WHJ3).
T5 sequence (P9WHJ3 whole entry): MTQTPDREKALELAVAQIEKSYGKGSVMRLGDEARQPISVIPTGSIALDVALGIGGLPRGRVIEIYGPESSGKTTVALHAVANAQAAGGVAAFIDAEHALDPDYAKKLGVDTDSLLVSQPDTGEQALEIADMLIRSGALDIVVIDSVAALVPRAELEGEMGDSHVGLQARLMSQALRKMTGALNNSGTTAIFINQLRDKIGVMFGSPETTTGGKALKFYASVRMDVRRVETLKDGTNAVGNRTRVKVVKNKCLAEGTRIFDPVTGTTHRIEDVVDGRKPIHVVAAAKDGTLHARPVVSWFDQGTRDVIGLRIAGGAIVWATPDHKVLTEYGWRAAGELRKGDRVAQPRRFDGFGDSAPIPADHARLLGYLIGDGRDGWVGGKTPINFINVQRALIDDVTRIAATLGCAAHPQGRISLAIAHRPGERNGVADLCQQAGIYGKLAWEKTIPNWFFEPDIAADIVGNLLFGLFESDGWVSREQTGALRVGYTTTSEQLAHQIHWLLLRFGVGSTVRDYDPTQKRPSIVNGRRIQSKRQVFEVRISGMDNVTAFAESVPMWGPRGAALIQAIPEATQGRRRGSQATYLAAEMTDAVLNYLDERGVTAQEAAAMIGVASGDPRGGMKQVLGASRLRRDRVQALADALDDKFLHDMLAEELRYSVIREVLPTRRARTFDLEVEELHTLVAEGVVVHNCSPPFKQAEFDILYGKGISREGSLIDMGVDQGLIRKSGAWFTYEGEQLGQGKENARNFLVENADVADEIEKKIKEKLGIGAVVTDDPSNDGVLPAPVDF
Put plainly: Fluorescence Cell-Free Homogeneous Dose Retest to Identify Inhibitors of RecA-Intein Splicing Activity. [Related pubchem assays (depositor defined):AID2097, AID2223, AID489010, AID492950]. The class given is functional.

Assay [21] in a line: Trypanosoma cruzi growth suppression in host cells – NIH3T3 host cells, beta-gal luminescence, confirmation (AID 2044).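 Further: intracellular parasites grown in NIH/3T3 mouse fibroblasts as host cells; luminescent beta-galactosidase reporter signal from transgenic T. cruzi replicating inside host cells; inhibitors lower the luminescence signal.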 It counts as functional, cell-based.
Assay [22] has as its target Wee1-like protein kinase (Homo sapiens, UniProt P30291). Put plainly: Dose Response Cell-based Assay for Inhibitors of Wee1 Degradation. [Related pubchem assays: 1410, 1321 ]. The class given is functional.
Assay [23] has as its target E3 ubiquitin-protein ligase Mdm2 (Homo sapiens, UniProt Q00987). Put plainly: MDM2-luc reporter signal enhancers, multi-concentration potency testing, MDM2 ubiquitin-protein ligase inhibitor program, whole-cell format, luminescence detection, 384-well microplate (AID 1394).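 Further: MDM2 E3 inhibitors raise luminescence so EC50 is for signal enhancement.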 The class given is functional.
The subject of assay [24] is BJ. Put plainly: BJ-TERT-LT-ST fibroblast viability loss – cell-based, RAS-independent, luminescence, dose response (AID 1935).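 Further: BJ fibroblasts immortalized with TERT plus LT and ST oncogenes.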 The class given is functional. Conditions: Homo sapiens.

SMILES strings stand for the structures. Calls of active or inactive are those of the source. A value given as a limit tells only on which side of the number the result lay.

T2 sequence (Q9HC97 whole entry): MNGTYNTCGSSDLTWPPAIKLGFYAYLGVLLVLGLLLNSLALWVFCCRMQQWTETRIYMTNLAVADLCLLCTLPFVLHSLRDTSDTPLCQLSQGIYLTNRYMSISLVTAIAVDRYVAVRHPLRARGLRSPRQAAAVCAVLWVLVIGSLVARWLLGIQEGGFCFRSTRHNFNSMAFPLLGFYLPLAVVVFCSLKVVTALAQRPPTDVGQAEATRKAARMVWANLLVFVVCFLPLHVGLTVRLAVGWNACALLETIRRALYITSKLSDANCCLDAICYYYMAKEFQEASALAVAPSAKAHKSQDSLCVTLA
E3 ubiquitin-protein ligase Mdm2, sequence (Q00987 whole entry): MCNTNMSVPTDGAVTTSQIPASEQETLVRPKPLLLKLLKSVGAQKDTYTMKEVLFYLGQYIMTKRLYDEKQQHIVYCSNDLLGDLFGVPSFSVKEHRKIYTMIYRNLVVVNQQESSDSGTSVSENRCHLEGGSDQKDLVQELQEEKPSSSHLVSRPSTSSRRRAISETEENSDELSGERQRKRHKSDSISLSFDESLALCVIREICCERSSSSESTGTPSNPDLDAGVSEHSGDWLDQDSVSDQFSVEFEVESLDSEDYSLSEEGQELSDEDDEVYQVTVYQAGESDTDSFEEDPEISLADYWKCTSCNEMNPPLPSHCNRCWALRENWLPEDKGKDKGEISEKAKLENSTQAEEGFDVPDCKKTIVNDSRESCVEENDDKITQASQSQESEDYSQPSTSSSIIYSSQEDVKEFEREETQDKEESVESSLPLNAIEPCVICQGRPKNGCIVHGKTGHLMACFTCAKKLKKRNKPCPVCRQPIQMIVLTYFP
Melanin-concentrating hormone receptor 1, sequence (Q99705 whole entry): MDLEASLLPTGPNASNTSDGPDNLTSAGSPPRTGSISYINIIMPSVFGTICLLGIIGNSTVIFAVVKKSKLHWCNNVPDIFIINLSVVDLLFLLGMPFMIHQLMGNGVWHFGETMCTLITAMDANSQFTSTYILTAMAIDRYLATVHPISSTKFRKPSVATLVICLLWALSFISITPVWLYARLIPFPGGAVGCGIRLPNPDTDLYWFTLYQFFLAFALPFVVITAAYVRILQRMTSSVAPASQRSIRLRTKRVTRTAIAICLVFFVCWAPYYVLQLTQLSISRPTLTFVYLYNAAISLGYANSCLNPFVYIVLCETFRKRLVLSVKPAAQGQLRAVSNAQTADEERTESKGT
Peroxisome proliferator-activated receptor gamma/Nuclear receptor corepressor 2, sequence (P37231 whole entry): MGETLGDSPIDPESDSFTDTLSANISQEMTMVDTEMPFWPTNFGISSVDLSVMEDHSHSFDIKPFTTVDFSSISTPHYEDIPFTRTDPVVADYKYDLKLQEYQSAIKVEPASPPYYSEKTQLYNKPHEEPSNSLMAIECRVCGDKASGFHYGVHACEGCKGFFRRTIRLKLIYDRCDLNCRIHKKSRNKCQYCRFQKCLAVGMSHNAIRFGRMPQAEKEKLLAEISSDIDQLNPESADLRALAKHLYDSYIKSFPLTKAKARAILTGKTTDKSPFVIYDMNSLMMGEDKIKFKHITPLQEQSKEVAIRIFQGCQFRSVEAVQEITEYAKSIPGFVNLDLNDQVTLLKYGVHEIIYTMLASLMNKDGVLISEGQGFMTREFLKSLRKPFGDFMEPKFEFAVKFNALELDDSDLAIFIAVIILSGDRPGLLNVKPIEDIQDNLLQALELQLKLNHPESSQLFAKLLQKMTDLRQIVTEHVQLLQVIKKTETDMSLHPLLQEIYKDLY
Peroxisome proliferator-activated receptor gamma/Nuclear receptor corepressor 2, sequence (Q9Y618 whole entry): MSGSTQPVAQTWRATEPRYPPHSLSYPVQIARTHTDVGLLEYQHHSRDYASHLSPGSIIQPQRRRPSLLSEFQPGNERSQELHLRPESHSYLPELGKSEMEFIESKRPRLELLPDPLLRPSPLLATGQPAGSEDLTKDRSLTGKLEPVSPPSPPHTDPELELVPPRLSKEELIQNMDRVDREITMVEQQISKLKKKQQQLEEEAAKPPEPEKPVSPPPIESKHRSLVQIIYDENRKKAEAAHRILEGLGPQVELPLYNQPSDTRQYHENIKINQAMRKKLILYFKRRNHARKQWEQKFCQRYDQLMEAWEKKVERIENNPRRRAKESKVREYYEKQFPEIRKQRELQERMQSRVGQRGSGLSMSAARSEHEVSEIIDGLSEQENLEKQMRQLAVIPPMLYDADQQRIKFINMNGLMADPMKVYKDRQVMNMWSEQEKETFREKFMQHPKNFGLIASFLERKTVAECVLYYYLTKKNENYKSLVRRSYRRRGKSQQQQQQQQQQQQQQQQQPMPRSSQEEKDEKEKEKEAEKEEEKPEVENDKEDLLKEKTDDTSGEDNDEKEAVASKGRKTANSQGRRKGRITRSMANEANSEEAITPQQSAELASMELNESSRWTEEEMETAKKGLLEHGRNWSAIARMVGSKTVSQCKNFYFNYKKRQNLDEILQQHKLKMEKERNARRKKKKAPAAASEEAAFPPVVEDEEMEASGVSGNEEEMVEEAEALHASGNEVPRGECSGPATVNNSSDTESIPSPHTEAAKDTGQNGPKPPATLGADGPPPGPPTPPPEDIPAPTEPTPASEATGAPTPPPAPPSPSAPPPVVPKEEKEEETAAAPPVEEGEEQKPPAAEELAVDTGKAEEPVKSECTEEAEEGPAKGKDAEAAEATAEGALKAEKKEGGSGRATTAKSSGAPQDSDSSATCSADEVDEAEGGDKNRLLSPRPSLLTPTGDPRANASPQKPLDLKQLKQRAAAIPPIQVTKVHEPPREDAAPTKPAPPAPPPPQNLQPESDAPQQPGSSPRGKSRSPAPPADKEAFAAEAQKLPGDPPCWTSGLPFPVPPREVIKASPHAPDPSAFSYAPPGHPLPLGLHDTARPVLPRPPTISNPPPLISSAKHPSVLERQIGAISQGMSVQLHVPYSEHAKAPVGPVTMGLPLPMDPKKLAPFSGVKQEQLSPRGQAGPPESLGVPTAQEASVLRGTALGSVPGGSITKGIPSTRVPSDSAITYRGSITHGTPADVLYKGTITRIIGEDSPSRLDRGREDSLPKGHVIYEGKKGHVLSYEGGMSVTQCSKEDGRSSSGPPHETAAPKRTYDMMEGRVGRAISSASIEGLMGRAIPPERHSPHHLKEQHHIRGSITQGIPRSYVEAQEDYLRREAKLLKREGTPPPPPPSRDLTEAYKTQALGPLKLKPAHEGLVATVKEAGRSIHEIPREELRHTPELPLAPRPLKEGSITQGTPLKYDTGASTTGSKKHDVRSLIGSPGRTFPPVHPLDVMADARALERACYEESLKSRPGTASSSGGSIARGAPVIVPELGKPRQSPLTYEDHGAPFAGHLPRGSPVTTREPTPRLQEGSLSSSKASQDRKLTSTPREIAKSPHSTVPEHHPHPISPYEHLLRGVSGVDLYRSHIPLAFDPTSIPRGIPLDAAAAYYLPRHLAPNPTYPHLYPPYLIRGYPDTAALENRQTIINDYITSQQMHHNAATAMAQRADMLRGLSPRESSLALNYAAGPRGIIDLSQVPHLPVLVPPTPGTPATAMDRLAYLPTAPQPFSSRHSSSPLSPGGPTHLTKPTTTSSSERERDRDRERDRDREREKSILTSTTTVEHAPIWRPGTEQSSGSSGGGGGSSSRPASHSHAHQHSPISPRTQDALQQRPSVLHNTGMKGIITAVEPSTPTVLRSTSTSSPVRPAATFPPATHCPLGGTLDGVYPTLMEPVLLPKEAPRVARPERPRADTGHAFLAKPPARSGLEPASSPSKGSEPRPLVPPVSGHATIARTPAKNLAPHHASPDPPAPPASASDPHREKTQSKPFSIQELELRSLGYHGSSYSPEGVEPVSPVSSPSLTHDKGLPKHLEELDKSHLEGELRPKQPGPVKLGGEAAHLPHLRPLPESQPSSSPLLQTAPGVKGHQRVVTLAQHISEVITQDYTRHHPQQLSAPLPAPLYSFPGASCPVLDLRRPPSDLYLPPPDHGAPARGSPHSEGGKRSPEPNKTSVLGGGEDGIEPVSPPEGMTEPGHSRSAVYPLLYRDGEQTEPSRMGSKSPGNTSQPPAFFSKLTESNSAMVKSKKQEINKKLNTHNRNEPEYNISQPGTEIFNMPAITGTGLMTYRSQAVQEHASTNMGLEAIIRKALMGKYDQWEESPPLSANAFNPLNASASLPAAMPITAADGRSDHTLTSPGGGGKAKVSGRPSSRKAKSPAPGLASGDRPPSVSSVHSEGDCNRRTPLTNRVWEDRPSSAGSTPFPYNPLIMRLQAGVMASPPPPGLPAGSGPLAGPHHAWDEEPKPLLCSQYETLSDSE
Photoreceptor-specific nuclear receptor, sequence (Q9Y5X4 whole entry): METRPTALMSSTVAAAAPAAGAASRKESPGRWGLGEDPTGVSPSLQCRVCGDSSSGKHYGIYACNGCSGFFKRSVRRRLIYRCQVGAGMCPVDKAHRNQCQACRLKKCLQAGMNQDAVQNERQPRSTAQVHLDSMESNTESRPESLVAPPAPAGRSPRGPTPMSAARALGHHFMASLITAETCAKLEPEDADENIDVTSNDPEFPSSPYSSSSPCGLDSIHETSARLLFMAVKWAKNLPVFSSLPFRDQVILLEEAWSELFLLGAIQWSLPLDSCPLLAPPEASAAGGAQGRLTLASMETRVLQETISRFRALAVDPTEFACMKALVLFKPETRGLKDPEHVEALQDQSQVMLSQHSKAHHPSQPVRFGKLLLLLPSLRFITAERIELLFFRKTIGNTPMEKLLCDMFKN
G-protein coupled receptor 55, sequence (Q9Y2T6 whole entry): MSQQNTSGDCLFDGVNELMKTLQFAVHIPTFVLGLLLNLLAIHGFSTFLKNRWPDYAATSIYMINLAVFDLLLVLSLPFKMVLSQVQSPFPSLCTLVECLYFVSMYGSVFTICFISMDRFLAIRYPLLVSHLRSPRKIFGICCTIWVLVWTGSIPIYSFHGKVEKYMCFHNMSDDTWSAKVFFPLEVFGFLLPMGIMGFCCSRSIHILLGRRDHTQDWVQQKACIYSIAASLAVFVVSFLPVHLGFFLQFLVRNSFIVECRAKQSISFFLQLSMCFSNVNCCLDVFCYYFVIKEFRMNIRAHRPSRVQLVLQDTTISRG
Protein Rev, sequence (P05866 whole entry): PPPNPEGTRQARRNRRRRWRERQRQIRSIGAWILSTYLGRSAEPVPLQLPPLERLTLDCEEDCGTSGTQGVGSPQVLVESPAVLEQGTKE

Regarding `CC(C)C[C@@H](CC(=O)N[C@H](CC(=O)N[C@@H]1CCNC[C@H]1C(=O)N[C@H](CC(=O)N[C@@H](CCC(=O)O)CC(=O)O)CC(C)C)C(C)C)NC(=O)[C@@H]1CNCC[C@H]1N`, the concentration at half-maximal activity (AC50) in [1] is 39.8 µM (inconclusive).

On to `Cc1ccccc1CN1C(=O)c2ccccc2Sc2ccc(C(=O)NCCCN3CCOCC3)cc21`, for which the IC50 in assay [2] is 8.23 µM (active); in assay [3], 12.1 µM (not active).

For the compound `COC(=O)c1cnn(-c2ccc(F)cc2F)c1/C=N/NC(=S)Nc1ccc(Cl)cc1`, the IC50 in assay [4] was 1.69 µM (active); in [5] it was > 32 µM (inactive); in assay [6], 0.171 µM (active).

For `CNCCCOc1ccc(C(C)(C)c2ccccc2)cc1`, in [7], the IC50 was > 79.4 µM (not active).

Take `COc1ccc(S(=O)(=O)NCC(=O)N(CC(=O)NCC2CCCO2)c2ccccc2C)cc1` (centres undefined): the EC50 in assay [8] was > 50 µM (not active).

As for `Cc1ccc(SCC(=O)N2c3ccccc3Sc3ccccc32)cc1`, the EC50 in assay [9] is > 150 µM (not active); in assay [10], 10.9 µM (active); in assay [11] it was > 500 µM (not active); in assay [12] it was > 150 µM (not active).

With `CCOc1ncccc1C(=O)Nc1ccc(C(=O)Nc2ccc(OC)cc2)cc1`, the IC50 in [13] is > 39.8 µM (not active); in assay [14], 3.53 µM (active).

On to `CCOC(=O)C1=C(c2ccccc2)O/C(=C(/C#N)C(F)(F)F)S1`, for which, in assay [15], the AC50 is > 380 µM (inactive). For the same compound, the EC50 in assay [16] was 4.58 µM (inconclusive); in assay [17] it was 6.24 µM (inconclusive); in assay [18], 4.88 µM (active); in assay [19], > 1.84 µM (active); in assay [20] it was 0.723 µM (active); in assay [21] it was 2.37 µM (active). Moreover, the 50% effective concentration (EC50) in assay [22] is > 1.84 µM (active); in [23] it was 0.84 µM (active); in [24] it was 5.47 µM (inconclusive).

The values above are taken from ChEMBL document CHEMBL1201862, “PubChem BioAssay data set” (2004).
